Where “and” joins values, the source holds several entries; their conditions need not be identical. Identical values can stand only once.
Tested on: 485368-065-R4-J2-PDC spheroids with HUVEC/MSC, viability
Assay: Anticancer human tumor 485368-065-R4-J2-PDC patient-derived pancreatic carcinoma cell line growth inhibition [CLK]
Settings: for viability, T/C: stronger effect = lower value
Description: A high-throughput screen of multi-cell type tumor spheroids was designed to identify active combinations of […] and targeted small molecules. Complex spheroids include a stromal component modeled by human endothelial cells (HUVEC) and fibroblasts modeled by human mesenchymal stem cells (MSCs). The concentration ranges selected for each drug and investigational agent were based upon clinically achievable concentrations if the clinical Cmax of the agent was known.
Compounds. The drugs and investigational agents: cirtuvivint (SM08502; NSC835563), CC-671 (NSC850746), vemurafenib (NSC761431), tapotoclax (NSC804041), sotorasib (NSC818433), adagrasib (NSC831453), MRTX-1133 (NSC836407), BAY2416964 (NSC825713), copanlisib (NSC816437), inavolisib (NSC800729), abemaciclib (NSC768073), osimertinib (NSC779217), entinostat (NSC756642), eltanexor (KPT-8602, NSC794443), venetoclax (NSC766270), ceralasertib (NSC777638), bortezomib (NSC756655), olaparib (NSC753686), talazoparib (NSC767125), alisertib (NSC759677), peposertib (NSC802822), gemcitabine (NSC613327), 5-fluorouracil (NSC19893), SN-38 (NSC673596), oxaliplatin (NSC266046), paclitaxel (NSC125973), and doxorubicin (NSC123127), were obtained from the National Cancer Institute (NCI) Developmental Therapeutics Program Chemical Repository. The FDA-approved anticancer drug set is available from the Developmental Therapeutics Program at https://dtp.cancer.gov/organization/dscb/obtaining/available plates.htm. […] The stock solutions were prepared in dimethyl sulfoxide (DMSO, Sigma-Aldrich, St. Louis, MO, cat. D2650), except for the platinum complexes which were prepared in saline (Quality Biological, Gaithersburg, MD, cat. 114-055-101), at 800-fold the tested concentration and stored at -70 degrees C prior to their use. All drugs and investigational agents were tested over a range starting from a high concentration at or near the clinical Cmax and decreasing in half-log increments. If the clinical Cmax for an agent had not been determined, the highest concentration tested was 10 microM.
Cell Culture. All cells were maintained in an incubator at 37 degrees C and 5% CO2 with 95% humidity. The PDC lines were cultured according to standard operating procedures established by the NCI PDMR. Briefly, all PDCs were thawed and cultured in Matrigel-coated flasks prepared with a working solution of 1X Ham's F-12 nutrient mix, without supplementation (Invitrogen, Waltham, MA, cat. 11765054), 100 U/mL penicillin-streptomycin (Invitrogen, cat. 15140122), and 2.5% Matrigel (Corning Inc., Corning, NY, cat. 354248) for the first three passages. The 947758-054-R-J2-PDC line was cultured in 6B/Colon 1A media, which includes advanced DMEM/F-12 (Thermo Fisher Scientific, cat. 12634028), 10 mM HEPES (Thermo Fisher Scientific, cat. 15630080), 1X GlutaMAX supplement (Thermo Fisher Scientific, cat. 35050061), 0.1 mg/mL primocin (InvivoGen, cat. ant-pm-2), 10% defined fetal bovine serum, heat inactivated (HyClone Laboratories Inc., cat. SH30070.03HI), 1.25 mM N-Acetyl-L-cysteine (Sigma-Aldrich, cat. A9165), 10 mM nicotinamide (Sigma-Aldrich, cat. N0636), 1X B-27 supplement (Thermo Fisher Scientific, cat. 17504044), 1X N-2 supplement (Thermo Fisher Scientific, cat. 17502048), and 10 microM Y-27632 dihydrochloride (Tocris Bioscience, cat. 1254). The 876862-298-R-J1-PDC was cultured in 6E media, which includes all 6B/Colon 1A media components plus 50% L-WRN conditioned media (ATCC, cat. CRL-3276), 50 ng/mL recombinant human EGF recombinant protein (hEGF; Thermo Fisher Scientific, cat. PHG0311), 10 ng/mL recombinant human fibroblast growth factor 10 (hGFG-10; PeproTech, cat. 100-26), 1 ng/mL recombinant human fibroblast growth factor 2 (hFGF-2; PeproTech, cat. 100-18B), and 1 µM prostaglandin E2 (PGE2; Tocris, cat. 2296). The 227483-062-R1-J1-PDC line was cultured in Panc media, containing all 6E components except hFGF-2, with the addition of 500 nM SB-431542 (Selleckchem, cat. S1067) and 10 nM gastrin (Tocris, cat. 3006). […]
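Note: spheroids exposed to compounds for seven days.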
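Throughout, for viability, T/C: 100% = DMSO vehicle control wells.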

## NC(=O)C(=Cn1cnc(-c2cc(C(F)(F)F)cc(C(F)(F)F)c2)n1)c1cncnc1
Compound 0.00949 µM
  viability, T/C: 94.3% and 112%
Compound 0.03 µM
  viability, T/C: 120% and 123%
Compound 0.0949 µM
  viability, T/C: 176% and 183%
Compound 0.3 µM
  viability, T/C: 193% and 186%
Compound 0.949 µM
  viability, T/C: 169% and 182%
Compound 3 µM
  viability, T/C: 122% and 136%
Curve of compound
  IC50: > 3000 nM

## CC(Nc1ccc2c(c1)OCCn1cc(N3C(=O)OCC3C(F)F)nc1-2)C(N)=O (stereo unspecified) + CN1CCN(c2cc(C(=O)Nc3cc4cc(-c5cnn(C)c5)ccc4cn3)ccn2)CC1
Curve of first compound, second compound 0.0316 µM
  IC50: > 10000 nM
Curve of first compound, second compound 0.1 µM
  IC50: > 10000 nM
Curve of first compound, second compound 0.316 µM
  IC50: 158 nM
Curve of first compound, second compound 1 µM
  IC50: < 31.6 nM
Curve of first compound, second compound 3.16 µM
  IC50: < 31.6 nM
Curve of first compound, second compound 10 µM
  IC50: < 31.6 nM
Second compound 0.0316 µM, first compound 0.0316 µM
  viability, T/C: 92.4%
Second compound 0.0316 µM, first compound 0.1 µM
  viability, T/C: 109%
Second compound 0.0316 µM, first compound 0.316 µM
  viability, T/C: 103%
Second compound 0.0316 µM, first compound 1 µM
  viability, T/C: 83.3%
Second compound 0.0316 µM, first compound 3.16 µM
  viability, T/C: 78.8%
Second compound 0.0316 µM, first compound 10 µM
  viability, T/C: 62.3%
Second compound 0.1 µM, first compound 0.0316 µM
  viability, T/C: 98.7%
Second compound 0.1 µM, first compound 0.1 µM
  viability, T/C: 95.5%
Second compound 0.1 µM, first compound 0.316 µM
  viability, T/C: 93%
Second compound 0.1 µM, first compound 1 µM
  viability, T/C: 68.8%
Second compound 0.1 µM, first compound 3.16 µM
  viability, T/C: 58.6%
Second compound 0.1 µM, first compound 10 µM
  viability, T/C: 53.4%
Second compound 0.316 µM, first compound 0.0316 µM
  viability, T/C: 68.9%
Second compound 0.316 µM, first compound 0.1 µM
  viability, T/C: 55.8%
Second compound 0.316 µM, first compound 0.316 µM
  viability, T/C: 41.9%
Second compound 0.316 µM, first compound 1 µM
  viability, T/C: 30.3%
Second compound 0.316 µM, first compound 3.16 µM
  viability, T/C: 27.2%
Second compound 0.316 µM, first compound 10 µM
  viability, T/C: 20.7%
Second compound 1 µM, first compound 0.0316 µM
  viability, T/C: 1.25%
Second compound 1 µM, first compound 0.1 µM
  viability, T/C: 1.05%
Second compound 1 µM, first compound 0.316 µM
  viability, T/C: 0.92%
Second compound 1 µM, first compound 1 µM
  viability, T/C: 0.74%
Second compound 1 µM, first compound 3.16 µM
  viability, T/C: 1.65%
Second compound 1 µM, first compound 10 µM
  viability, T/C: 1.84%
Second compound 3.16 µM, first compound 0.0316 µM
  viability, T/C: 2.26%
Second compound 3.16 µM, first compound 0.1 µM
  viability, T/C: 1.12%
Second compound 3.16 µM, first compound 0.316 µM
  viability, T/C: 3.5%
Second compound 3.16 µM, first compound 1 µM
  viability, T/C: 2.02%
Second compound 3.16 µM, first compound 3.16 µM
  viability, T/C: 2.42%
Second compound 3.16 µM, first compound 10 µM
  viability, T/C: 2.95%
Second compound 10 µM, first compound 0.0316 µM
  viability, T/C: 1.54%
Second compound 10 µM, first compound 0.1 µM
  viability, T/C: 2.13%
Second compound 10 µM, first compound 0.316 µM
  viability, T/C: 2.05%
Second compound 10 µM, first compound 1 µM
  viability, T/C: 2.62%
Second compound 10 µM, first compound 3.16 µM
  viability, T/C: 2.43%
Second compound 10 µM, first compound 10 µM
  viability, T/C: 2.04%

## COc1ccc([C@@H](O)c2cc(-c3ncnc4cc(N5CCOCC5)ccc34)c(F)cc2Cl)nn1
Compound 0.0316 µM
  viability, T/C: 97% and 105%
Compound 0.1 µM
  viability, T/C: 94.9% and 95.8%
Compound 0.316 µM
  viability, T/C: 103% and 96.8%
Compound 1 µM
  viability, T/C: 105% and 114%
Compound 3.16 µM
  viability, T/C: 104% and 102%
Compound 10 µM
  viability, T/C: 82.6% and 77.8%
Curve of compound
  IC50: > 10000 nM

— PubChem BioAssay AID2060617 (Molecular Pharmacology Branch, DTP, NCI, 2025)
